# Patent publication US8299097B2, “Methods for treating inflammatory disorders” (The Brigham and Women's Hospital, Inc., priority 2008, dated 2012)
# What was measured:
# naïve BALB/c mice = test: Intranasal cys-LT in naïve BALB/c mice, lung histology; type: in vivo, mouse; conditions: 2 nmol, three successive days
# Description: Thus, it was sought to determine whether either cys-LT amplified pulmonary […], BALB/c mice received inhalation challenges on three consecutive days with low-dose OVA (0.1%) for 30 minutes. Twelve hours before each challenge, the mice received intranasal LTD4, LTE4, or a buffer control. A cohort of mice treated with 1% OVA were maintained as a positive control. The mice were then euthanized, their BAL fluid collected, and their lungs examined histologically for evidence of inflammation and goblet cell metaplasia, a dominant pathologic signature of Th2-polarized mucosal inflammation. […] The extent of the cellularity and goblet cell responses of the LTE4-treated animals approached the levels of these parameters in the mice treated with 1% OVA.
# 15 bronchovascular bundles of each mouse were evaluated.
# Cysltr1/Cysltr2^−/− mice = test: LTE4 amplification of pulmonary inflammation in mice lacking both CysLT1R and CysLT2R; type: in vivo, mouse
# Description: (§1) FIG. 4. […] 4A. […] Clopidogrel (500 μg/ml) was added to the drinking water of the indicated groups of mice for 72 h before the first intranasal dose of LTs, and was maintained throughout the treatment. Results are mean±SEM from at least 9 mice in each group. The experiments were repeated three times with similar results. 4B. PAS stains (left column) from representative mice in the indicated groups showing the effect of clopidigrel on goblet cell metaplasia. Higher magnification images of H & E stains (right) from the same animals showing cellular characteristics of the bronchovascular infiltrates. 4C. Effect of clopidogrel administration on the steady-state expression of IL-13 and MUC5AC mRNA as determined by real-time PCR of whole lung RNA extracted 24 h after the last OVA challenge of the indicated groups. Data are mean±SEM from 4-5 mice/group from a single experiment. Results in a second experiment were similar 4D-4F. […] 4D. Total cell numbers (top), percentages of eosinophils (middle), and total numbers of eosinophils in BAL fluid recovered 24 h after the last challenge with OVA. 4E. Goblet cell metaplasia (top) and representative PAS stains (bottom) from wild-type and p2ry12^−/− mice subjected to the same protocol. 4E. Inflammation scores from the same mice. Data in 4D-4F are from 4 mice per group. […] Quantitative assessment of bronchovascular inflammation as determined by H & E stains. […]
# p2ry12^−/− mice = test: LTE4 amplification of pulmonary inflammation in p2ry12^−/− mice and C57BL/6 controls; type: in vivo, mouse
# Description: as §1
# human blood platelets = test: Platelet activation, cytofluorographic detection of P-selectin (CD62P); type: cell-based; conditions: ADP 100 μM or LTE4 1 μM, 10 min
# Description: FIG. 6. […] Each antibody (Ab) was diluted in 50 μl of sterile saline. […] 6A. PAS stains of the lungs of representative mice treated with isotype control (top) or with an anti-CD42 platelet-depleting antibody (bottom). 6B. Inflammation (top) and goblet cell metaplasia (bottom) in the lungs of mice treated with the indicated LT and antibody. A cohort of mice was treated with clopidogrel as indicated. Results in 6B are from a single experiment with 5 mice per group. […] 6C. […] Results are from a single experiment performed three times on different donors.
# Platelets accumulate in the lungs of asthmatic individuals (Jeffery, P. K., et al. 1989. Am. Rev. Respir. Dis. 140:1745-1753), and are also recruited to the lungs of ovalbumin sensitized and challenged mice by an IgE-dependent mechanism (Pitchford, S. C., et al. 2008. Am. J. Respir. Crit. Care Med. 177:604-612).
SMILES,"lung histology (cellular influx, goblet cell metaplasia) (naïve BALB/c mice)","potentiation of OVA-induced BAL fluid eosinophilia, goblet cell metaplasia and inflammation (Cysltr1/Cysltr2^−/− mice)","potentiation of BAL fluid eosinophilia, goblet cell metaplasia and bronchovascular infiltration (p2ry12^−/− mice; WT C57BL/6 controls)","potentiation of BAL fluid eosinophilia, goblet cell metaplasia and bronchovascular infiltration (p2ry12^−/− mice; p2ry12^−/− mice)",CD62P expression by platelets (human blood platelets)
CCCCC/C=C\C\C=C/C=C/C=C/[C@@H](SC[C@H](N)C(=O)NCC(=O)O)[C@@H](O)CCCC(=O)O [LTD4],no evidence of cellular influx or goblet cell metaplasia,–,–,–,–
CCCCC/C=C\C\C=C/C=C/C=C/[C@@H](SC[C@H](N)C(=O)O)[C@@H](O)CCCC(=O)O [LTE4],no evidence of cellular influx or goblet cell metaplasia,completely intact,potentiated,severely blunted,no CD62P expression was detected
